Results published in ChEMBL document CHEMBL1132340, “Novel prodrug approach for tertiary amines: synthesis and preliminary evaluation of N-phosphonooxymethyl prodrugs” (J Med Chem, 1999).

How the values were obtained:
Type in all cases: physicochemical
[1] = pKa2 value of the compound; details: read-out: pKa2
[2] = pKa1 value of the compound; details: read-out: pKa1
[3] = pKa value of the compound

pKa [1]	pKa [2]	pKa [3]	Structure (SMILES)
7.47	1.95	–	O=P(O)(O)OC[N+]1(C/C=C/c2ccccc2)CCN(C(c2ccccc2)c2ccccc2)CC1
–	–	6.56	CCCCc1oc2ccccc2c1C(=O)c1cc(I)c(OCC[N+](CC)(CC)COP(=O)(O)O)c(I)c1
7.5	–	–	C[N+]1(COP(=O)(O)O)CCN(C2=Nc3ccccc3Oc3ccc(Cl)cc32)CC1
